Measured values as given in ChEMBL document CHEMBL1201862, “PubChem BioAssay data set” (2004).
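Method: 48-hour compound exposure of cells in 96-well plates, five concentrations, linear interpolation of endpoints. Abbreviation: GI50, concentration required for 50% inhibition of growth.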 Calls of active or inactive are those of the source. Cut-off read from the data, not from the text of the source: active = GI50 up to about 1.1 µM and inactive = higher.

Columns and labels:
Experiment in all cases: DTP human tumour cell line panel, 48 h
SR = tested on: SR
NCI/ADR-RES = tested on: NCI/ADR-RES
HCT-116 = tested on: HCT-116
KM12 = tested on: KM12
786-0 = tested on: 786-0
Malme-3M = tested on: Malme-3M
UACC-62 = tested on: UACC-62
SF-295 = tested on: SF-295
ACHN = tested on: ACHN
SF-539 = tested on: SF-539
EKVX = tested on: EKVX
HOP-92 = tested on: HOP-92
MDA-MB-435 = tested on: MDA-MB-435
T47D = tested on: T47D
HT-29 = tested on: HT-29
UACC-257 = tested on: UACC-257
CCRF-CEM = tested on: CCRF-CEM
A498 = tested on: A498
RPMI-8226 = tested on: RPMI-8226
MOLT-4 = tested on: MOLT-4
HL-60 = tested on: HL-60
M14 = tested on: M14
TK-10 = tested on: TK-10
SW-620 = tested on: SW-620
SK-MEL-28 = tested on: SK-MEL-28
K562 = tested on: K562
SN12C = tested on: SN12C
A549 = tested on: A549
HCT-15 = tested on: HCT-15
HOP-62 = tested on: HOP-62
DU-145 = tested on: DU-145
UO-31 = tested on: UO-31
SF-268 = tested on: SF-268
OVCAR-5 = tested on: OVCAR-5
HCC 2998 = tested on: HCC 2998
PC-3 = tested on: PC-3
OVCAR-4 = tested on: OVCAR-4
U-251 = tested on: U-251
MDA-MB-231 = tested on: MDA-MB-231
BT-549 = tested on: BT-549
COLO 205 = tested on: COLO 205
SNB-19 = tested on: SNB-19
NCI-H226 = tested on: NCI-H226
RXF 393 = tested on: RXF 393
MCF7 = tested on: MCF7
OVCAR-3 = tested on: OVCAR-3
CAKI-1 = tested on: CAKI-1
NCI-H23 = tested on: NCI-H23
NCI-H460 = tested on: NCI-H460
IGROV-1 = tested on: IGROV-1
OVCAR-8 = tested on: OVCAR-8
MDA-N = tested on: MDA-N
SNB-75 = tested on: SNB-75
LOX IMVI = tested on: LOX IMVI
NCI-H522 = tested on: NCI-H522
SK-MEL-2 = tested on: SK-MEL-2
SK-MEL-5 = tested on: SK-MEL-5
SK-OV-3 = tested on: SK-OV-3
Hs-578T = tested on: Hs-578T

SMILES: C=C(C)C1Cc2c(cc(O)c3c(=O)c4c(oc23)C(O)Oc2cc(OC)c(OC)cc2-4)O1 (stereo not drawn)
- GI50 (SR): > 10 µM (inactive)
- GI50 (NCI/ADR-RES): > 10 µM (inactive)
- GI50 (HCT-116): > 10 µM (inactive)
- GI50 (KM12): > 10 µM (inactive)
- GI50 (786-0): > 10 µM (inactive)
- GI50 (Malme-3M): > 10 µM (inactive)
- GI50 (UACC-62): > 10 µM (inactive)
- GI50 (SF-295): > 10 µM (inactive)
- GI50 (ACHN): > 10 µM (inactive)
- GI50 (SF-539): > 10 µM (inactive)
- GI50 (EKVX): > 10 µM (inactive)
- GI50 (HOP-92): > 10 µM (inactive)
- GI50 (MDA-MB-435): > 10 µM (inactive)
- GI50 (T47D): > 10 µM (inactive)
- GI50 (HT-29): > 10 µM (inactive)
- GI50 (UACC-257): > 10 µM (inactive)
- GI50 (CCRF-CEM): > 10 µM (inactive)
- GI50 (A498): > 10 µM (inactive)
- GI50 (RPMI-8226): > 10 µM (inactive)
- GI50 (MOLT-4): > 10 µM (inactive)
- GI50 (HL-60): > 10 µM (inactive)
- GI50 (M14): > 10 µM (inactive)
- GI50 (TK-10): > 10 µM (inactive)
- GI50 (SW-620): > 10 µM (inactive)
- GI50 (SK-MEL-28): > 10 µM (inactive)
- GI50 (K562): > 10 µM (inactive)
- GI50 (SN12C): > 10 µM (inactive)
- GI50 (A549): > 10 µM (inactive)
- GI50 (HCT-15): > 10 µM
- GI50 (HOP-62): > 10 µM (inactive)
- GI50 (DU-145): > 10 µM (inactive)
- GI50 (UO-31): > 10 µM (inactive)
- GI50 (SF-268): > 10 µM (inactive)
- GI50 (OVCAR-5): > 10 µM (inactive)
- GI50 (HCC 2998): > 10 µM (inactive)
- GI50 (PC-3): > 10 µM (inactive)
- GI50 (OVCAR-4): > 10 µM (inactive)
- GI50 (U-251): > 10 µM (inactive)
- GI50 (MDA-MB-231): > 10 µM (inactive)
- GI50 (BT-549): > 10 µM (inactive)
- GI50 (COLO 205): > 10 µM (inactive)
- GI50 (SNB-19): > 10 µM (inactive)
- GI50 (NCI-H226): 6.97 µM (inactive)
- GI50 (RXF 393): > 10 µM (inactive)
- GI50 (MCF7): > 10 µM (inactive)
- GI50 (OVCAR-3): > 10 µM (inactive)
- GI50 (CAKI-1): > 10 µM (inactive)
- GI50 (NCI-H23): > 10 µM (inactive)
- GI50 (NCI-H460): > 10 µM (inactive)
- GI50 (IGROV-1): > 10 µM (inactive)
- GI50 (OVCAR-8): > 10 µM (inactive)
- GI50 (MDA-N): > 10 µM (inactive)

SMILES: O=C(/N=N/c1ccccc1Cl)NNc1ccccc1Cl
- GI50 (SR): 27.5 µM (inactive)
- GI50 (HCT-116): 20.5 µM (inactive)
- GI50 (786-0): 18.5 µM (inactive)
- GI50 (Malme-3M): 67 µM (inactive)
- GI50 (UACC-62): 43.4 µM (inactive)
- GI50 (ACHN): 28.1 µM (inactive)
- GI50 (SNB-75): > 100 µM (inactive)
- GI50 (MDA-MB-435): 31 µM (inactive)
- GI50 (T47D): 30.5 µM (inactive)
- GI50 (HT-29): 93.8 µM (inactive)
- GI50 (UACC-257): > 100 µM (inactive)
- GI50 (CCRF-CEM): 22.2 µM (inactive)
- GI50 (A498): 29 µM (inactive)
- GI50 (RPMI-8226): 24.7 µM (inactive)
- GI50 (MOLT-4): 29.3 µM (inactive)
- GI50 (HL-60): 19.2 µM (inactive)
- GI50 (M14): 56.8 µM (inactive)
- GI50 (TK-10): 50.9 µM (inactive)
- GI50 (SW-620): 40.7 µM (inactive)
- GI50 (SK-MEL-28): 69.7 µM (inactive)
- GI50 (K562): 27.8 µM (inactive)
- GI50 (SN12C): 61.7 µM (inactive)
- GI50 (A549): 55.5 µM (inactive)
- GI50 (HCT-15): 60.7 µM
- GI50 (LOX IMVI): 23.4 µM (inactive)
- GI50 (HOP-62): 9.48 µM (inactive)
- GI50 (DU-145): 43.2 µM (inactive)
- GI50 (UO-31): 21.8 µM (inactive)
- GI50 (NCI-H522): 23.6 µM (inactive)
- GI50 (SF-268): 60.5 µM (inactive)
- GI50 (OVCAR-5): 43.2 µM (inactive)
- GI50 (HCC 2998): 27.1 µM (inactive)
- GI50 (PC-3): 30 µM (inactive)
- GI50 (OVCAR-4): 16.2 µM (inactive)
- GI50 (U-251): 41.6 µM (inactive)
- GI50 (MDA-MB-231): 54.3 µM (inactive)
- GI50 (BT-549): > 10 µM (inactive)
- GI50 (SK-MEL-2): 32 µM (inactive)
- GI50 (SNB-19): 63.2 µM (inactive)
- GI50 (SK-MEL-5): 85.3 µM (inactive)
- GI50 (NCI-H226): > 100 µM (inactive)
- GI50 (OVCAR-3): 35 µM (inactive)
- GI50 (CAKI-1): 36.7 µM (inactive)
- GI50 (NCI-H23): 50 µM (inactive)
- GI50 (NCI-H460): 65 µM (inactive)
- GI50 (IGROV-1): 20.4 µM (inactive)
- GI50 (OVCAR-8): 27.6 µM (inactive)
- GI50 (MDA-N): 36.5 µM (inactive)

SMILES: COc1cc(C2C3=C(NC(=O)C2C#N)c2ccc4ccccc4c2OCC3)cc(OC)c1OC (stereo not drawn)
- GI50 (NCI/ADR-RES): 30.4 µM (inactive)
- GI50 (HCT-116): 15.7 µM (inactive)
- GI50 (KM12): 44.9 µM (inactive)
- GI50 (786-0): 31.5 µM (inactive)
- GI50 (Malme-3M): 17.8 µM (inactive)
- GI50 (SF-295): 27.6 µM (inactive)
- GI50 (ACHN): 16.6 µM (inactive)
- GI50 (SF-539): 18.7 µM (inactive)
- GI50 (SNB-75): 16.2 µM (inactive)
- GI50 (EKVX): 89.7 µM (inactive)
- GI50 (HOP-92): 10.4 µM (inactive)
- GI50 (MDA-MB-435): 41.7 µM (inactive)
- GI50 (T47D): 12.2 µM (inactive)
- GI50 (HT-29): 33 µM (inactive)
- GI50 (SK-OV-3): 17.2 µM (inactive)
- GI50 (UACC-257): 56.5 µM (inactive)
- GI50 (CCRF-CEM): 70.8 µM (inactive)
- GI50 (A498): 12.4 µM (inactive)
- GI50 (RPMI-8226): 7.83 µM (inactive)
- GI50 (MOLT-4): 34.2 µM (inactive)
- GI50 (HL-60): 27 µM (inactive)
- GI50 (M14): 50 µM (inactive)
- GI50 (TK-10): > 100 µM (inactive)
- GI50 (SW-620): 78.7 µM (inactive)
- GI50 (SK-MEL-28): 18.3 µM (inactive)
- GI50 (K562): 44.6 µM (inactive)
- GI50 (SN12C): 18.1 µM (inactive)
- GI50 (A549): 54.2 µM (inactive)
- GI50 (HCT-15): 41.8 µM
- GI50 (HOP-62): 20 µM (inactive)
- GI50 (DU-145): 34.4 µM (inactive)
- GI50 (Hs-578T): 20.9 µM (inactive)
- GI50 (UO-31): 15.1 µM (inactive)
- GI50 (NCI-H522): 28.9 µM (inactive)
- GI50 (SF-268): 22.8 µM (inactive)
- GI50 (OVCAR-5): 17.6 µM (inactive)
- GI50 (HCC 2998): 25 µM (inactive)
- GI50 (PC-3): 49.3 µM (inactive)
- GI50 (OVCAR-4): 48 µM (inactive)
- GI50 (U-251): 16.7 µM (inactive)
- GI50 (BT-549): 17.3 µM (inactive)
- GI50 (COLO 205): 15.4 µM (inactive)
- GI50 (SK-MEL-2): 22.1 µM (inactive)
- GI50 (SNB-19): 28.3 µM (inactive)
- GI50 (SK-MEL-5): 28.2 µM (inactive)
- GI50 (RXF 393): 14.4 µM (inactive)
- GI50 (MCF7): 30.9 µM (inactive)
- GI50 (OVCAR-3): 45 µM (inactive)
- GI50 (CAKI-1): 20.1 µM (inactive)
- GI50 (NCI-H23): 41.3 µM (inactive)
- GI50 (NCI-H460): 25.9 µM (inactive)
- GI50 (IGROV-1): 16.2 µM (inactive)
- GI50 (OVCAR-8): 86.7 µM (inactive)
